Data reported in patent publication US6235717A, “Pharmaceutical compounds” (Glaxo Wellcome Inc., priority 1993, dated 2001).
Non-standard residues stand in square brackets, D forms with d. Residues, ends and D or L forms follow the SMILES beside them. *: point of attachment. Phe(4-Br) = N[CH](Cc1ccc(Br)cc1)C(=O)O; Cbz = O=C(OCc1ccccc1)*; Bn = c1ccc(C*)cc1

target: endothelin converting enzyme (ECE) (Sus scrofa, UniProt F1SU04); experiment: "ECE" assay with porcine aortic "ECE" prep, fluorogenic substrate Suc-Ile-Ile-Trp-MCA; assay type: biochemical; details: porcine aortic endothelial cell ECE prep; 80 μM Suc-Ile-Ile-Trp-MCA; 15-20 min preincubation; overnight at 37° C.; pH 7.0; AMC fluorescence
Protocol: IC50 values were determined as follows:
Porcine Aortic "ECE" Prep
Porcine aortas (22-25) were obtained fresh from a local slaughterhouse and delivered in cold PBS on ice. The aortas were cut open, rinsed with cold PBS and the endothelial cell layer scraped into cold PBS using a scalpel. The endothelial cells were pelleted by centrifugation, rinsed once with cold PBS, and repelleted. The pellet was lysed by addition of 10 volumes of 10 mM Tris-HCl, pH 7.0, containing protease inhibitors and DTS, followed by brief sonication and homogenization. The lysate was centrifuged at 100,000 g for 1 hour and the supernatant applied to a MONOQ FPLC anion exchange column equilibrated in 10 mM Tris-HCl, pH 7.0 (buffer A) which was then developed with an increasing gradient of NaCl in buffer A. The active fractions were aliquoted and stored at -70° C.
The ECE assay was performed in 96-well microplates in a total volume of 200μ/well. The assay cocktail contains 100 mM Tris-HCl, pH 7.0, 20 mM CaCl2, 80 μM substrate (Suc-Ile-Ile-Trp-MCA), enzyme and test compounds. The test compounds were preincubated with the enzyme for 15-20 minutes before initiation of the assay by addition of the substrate. The assay was incubated overnight at 37° C. and the fluorescence intensity caused by the release of AMC was determined using a fluorescence microplate reader (EX360 nm/EM460 nm). IC50 values for compounds were determined by constructing concentration-effect curves for the inhibition of enzyme activity. Concentrations on the linear portion of the inhibition curve were used to determine the IC50 utilizing a Hill plot.

Sequence of endothelin converting enzyme (ECE) (F1SU04 entry or part of it): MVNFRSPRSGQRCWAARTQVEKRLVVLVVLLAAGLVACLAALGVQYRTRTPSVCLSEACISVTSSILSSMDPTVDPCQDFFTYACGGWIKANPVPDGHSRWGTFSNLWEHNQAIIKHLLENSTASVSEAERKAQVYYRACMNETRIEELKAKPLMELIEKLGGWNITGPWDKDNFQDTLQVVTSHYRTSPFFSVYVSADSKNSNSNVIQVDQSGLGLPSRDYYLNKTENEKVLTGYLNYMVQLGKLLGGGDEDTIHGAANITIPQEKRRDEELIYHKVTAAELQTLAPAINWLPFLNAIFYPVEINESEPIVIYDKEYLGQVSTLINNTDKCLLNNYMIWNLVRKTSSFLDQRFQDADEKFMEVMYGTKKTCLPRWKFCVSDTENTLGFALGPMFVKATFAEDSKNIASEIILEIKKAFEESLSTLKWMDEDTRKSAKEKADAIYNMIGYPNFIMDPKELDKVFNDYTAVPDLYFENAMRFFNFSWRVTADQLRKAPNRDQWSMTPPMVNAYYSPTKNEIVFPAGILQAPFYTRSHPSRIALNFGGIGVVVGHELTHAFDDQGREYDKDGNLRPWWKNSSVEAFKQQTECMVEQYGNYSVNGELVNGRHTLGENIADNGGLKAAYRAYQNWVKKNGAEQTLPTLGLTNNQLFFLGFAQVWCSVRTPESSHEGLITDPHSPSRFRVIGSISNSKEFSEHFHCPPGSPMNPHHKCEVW

| Compound | IC50 |
| --- | --- |
| O=C[C@H](Cc1ccc(Br)cc1)NC(=O)[C@H](Cc1ccc(OCc2ccccc2)cc1)NC(=O)[C@H](Cc1ccc(OCc2ccccc2)cc1)NC(=O)OCc1ccccc1 [Example 98, N-Benzyloxycarbonyl-S-(O-benzyl)tyrosyl-S-(O-benzyl)tyrosyl-1-S-formyl-1-(4-bromophenylmethyl)-methylamide] (Cbz-Tyr(Bn)-Tyr(Bn)-[Phe(4-Br)]-aldehyde) | 1000 nM |
| CCOc1ccc(CC(NC(=O)C(Cc2ccc(OCc3ccccc3)cc2)NC(=O)OCc2ccccc2)C(=O)NC(C=O)Cc2ccc(Br)cc2)cc1 (stereo not drawn) [Example 99, N-Benzyloxycarbonyl-S-(O-benzyl)tyrosyl-S-(O-ethyl)tyrosyl-1-S-formyl-1-(4-bromophenylmethyl)-methylamide] (Cbz-Tyr(Bn)-Tyr(Et)-[Phe(4-Br)]-aldehyde; configuration not given here) | 20 nM |
| CCOc1ccc(C[C@H](NC(=O)OCc2ccccc2)C(=O)N[C@@H](Cc2ccc(OCc3ccccc3)cc2)C(=O)N[C@H](C=O)Cc2ccc(Br)cc2)cc1 [Example 100, N-Benzyloxycarbonyl-S-(O-ethyl)tyrosyl-S-(O-benzyl)tyrosyl-1-S-formyl-1-(4-bromophenylmethyl)-methylamide] (Cbz-Tyr(Et)-Tyr(Bn)-[Phe(4-Br)]-aldehyde) | 60 nM |
| N-(3-Phenylpropionyl)-L-isoleucyl-L_isoleucine-L-N-[1-formyl]2-(1H-indol-3- yl)ethyl]amide [Example 59] | 100 nM |
| N-(benzyloxy)carbonyl-L-isoleucyl-L-isoleucine-L-N[1-[[(5-nitro-2-pyridyl)dithio]methyl]-2-(1H-indol-3-yl)ethyl]amide [Example 57] | 1000 nM |
| N-Benzloxycarbonyl-L-isoleucyl-L-isoleucine-L-N-[1-ethoxalyl]2-(phenyl)ethyl]amide [Example 53] | 10000 nM |
| N-Benzyloxycarbonyl-L-isoleucyl-L-isoleucine-L-N-[1-[2-oxiranylcarbonyl]-2- (phenyl)ethyl]amide [Example 45] | 200 nM |
| N-Benzyloxycarbonyl-L-isoleucyl-L-isoleucine-L-N-[1-formylhydroxymethyl-2-(phenylethyl]amide) [Example 47] | 5000 nM |
| N-Benzyloxycarbonyl-L-isoleucyl-L-isoleucine-L-N-[1-glyoxyloyl-2-(phenyl)ethyl]amide [Example 46] | 800 nM |
| N-Benzyloxycarbonyl-L-isoleucyl-L-isoleucine-L-N-[1pyruvoyl]2-(phenyl)ethyl]amide [Example 52] | 2000 nM |
| N-Benzyloxycarbonyl-L-isoleucyl-L-isoleucine-L-N-[(E)-2-(methoxycarbonyl)vinyl]2-(1H-indol-3-yl)ethyl]amide [Example 51] | 10000 nM |
| N-Benzyloxycarbonyl-L-isoleucyl-L_isoleucine-L-N-[1[2-(acetylthio)acetyl]2- phenyl)ethyl]amide [Example 55] | 8000 nM |
| N-Benzyloxycarbonyl-S-isoleucyl-S-phenylalanyl-1-S-formyl-1-(S)-1-methylpropylbutyl-methylamide [Example 23] | 3500 nM |
| N-Benzyloxycarbonyl-S-p-bromophenylalanyl-S-2'naphthylalanyl-1-S-formyl-1-(1H-indol-3-yl-methyl)-methylamide [Example 38] | 8 nM |
| N-Benzyloxycarbonyl-S-tryptophanyl-S-2'naphthylalanyl-1-S-formyl-1-(1H-indol-3-yl-methyl)-methylamide [Example 35] | 30 nM |
| N-Benzyloxycarbonyl-S-tryptophanyl-S-tryptophanyl-1-S-formyl-1-(1H-indol-3- yl-methyl)-methylamide [Example 31] | 60 nM |
| N-[12-[(benzyloxy)acetamido]dodecanoyl]--L-isoleucyl-L-isoleucine-L-N-[1-formyl]2-(1H-indol-3-yl)ethyl]amide [Example 79] | 60 nM |
| N-[(benzyloxy)carbonyl]-L-aspart-1-yl]-L-isoleucyl-L-isoleucine-L-N-[1-dimethoxymethyl]2-(1H-indol-3-yl)ethyl]amide [Example 76] | 2600 nM |
| N-[[5-(hexahydro-2-oxo-1H-thieno[3,4-d]imidazol-4-yl]valeryl-L-isoleucyl-L- isoleucine-L-N-[1-formyl]2-(1H-indol-3-yl)ethyl]amide [Example 63] | 30 nM |
| N-[[[5-(hexahydro-2-oxo-1H-thieno[3,4-d]imidazol-4-yl)valeramido]hexanoyl]- L-isoleucyl-L-isoleucine-L-N-[1-formyl]2-(1H-indol-3-yl-ethyl]amide [Example 67] | 80 nM |
| N-[benzyloxy)carbonyl]-L-aspart-1-yl]-L-isoleucyl-L-isoleucine-L-N-[1-formyl]2-(1H-indol-3-yl)ethyl]amide [Example 65] | 100 nM |
| [[5-(hexahydro-2-oxo-1H-thieno[3,4-d]imidazol-4-yl]valeryl-L-isoleucyl-L-isoleucine-L-N-[1-dimethoxymethyl]2-(1H-indol-3-yl)ethyl]amide [Example 62] | 2000 nM |
